Laboratory results reported in the supplement of paper PMC10307832.

Legend:
Assay in all cases: relative viability (nuclei count vs DMSO), 5 days (fraction); higher = more cells survive
BEN = tested on: BEN
Method in brief: (§1)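 Lung cancer cell lines were pin-tool dosed in 1536-well plates on the day after seeding, with either a lone drug or a fixed anchor-drug dose plus five library-drug doses (not always all listed) in √10 steps. Nuclei were counted on 4× images after 5 days. Relative viability is the ratio of treated-well to vehicle-well nuclei counts, with each value a median of duplicate plates.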

NCI-H1792 = tested on: NCI-H1792
Method in brief: as §1

NCI-H647 = tested on: NCI-H647
Method in brief: as §1

EKVX = tested on: EKVX
Method in brief: as §1

NCI-H661 = tested on: NCI-H661
Method in brief: as §1

NCI-H596 = tested on: NCI-H596
Method in brief: as §1

NCI-H1734 = tested on: NCI-H1734
Method in brief: as §1

NCI-H2405 = tested on: NCI-H2405
Method in brief: as §1

NCI-H1437 = tested on: NCI-H1437
Method in brief: as §1

HCC-366 = tested on: HCC-366
Method in brief: as §1

HCC-44 = tested on: HCC-44
Method in brief: as §1

NCI-H2170 = tested on: NCI-H2170
Method in brief: as §1

HARA = tested on: HARA
Method in brief: as §1

NCI-H1355 = tested on: NCI-H1355
Method in brief: as §1

LOU-NH91 = tested on: LOU-NH91
Method in brief: as §1

SK-LU-1 = tested on: SK-LU-1
Method in brief: as §1

LC-2-ad = tested on: LC-2-ad
Method in brief: as §1

HCC-827 = tested on: HCC-827
Method in brief: as §1

NCI-H2009 = tested on: NCI-H2009
Method in brief: as §1

NCI-H2228 = tested on: NCI-H2228
Method in brief: as §1

NCI-H2087 = tested on: NCI-H2087
Method in brief: as §1

SK-MES-1 = tested on: SK-MES-1
Method in brief: as §1

`CC(C)Oc1cc(Nc2nc(N[C@@H](C)c3ccc(F)cn3)ncc2Cl)n[nH]1` [AZ23] + C[C@@H](Oc1cc(-c2cnn(C3CCNCC3)c2)cnc1N)c1c(Cl)ccc(F)c1Cl [Crizotinib] (partner 1 µM) was tested, and the relative viability (BEN; first compound 0.01 µM) was 0.855, the relative viability (BEN; first compound 0.03162 µM) was 1.09 and the relative viability (BEN; first compound 0.3162 µM) was 0.968. For the same compound, the relative viability (NCI-H1792; first compound 0.01 µM) was 1.47, the relative viability (NCI-H1792; first compound 0.03162 µM) was 1.27 and the relative viability (NCI-H1792; first compound 0.3162 µM) was 1.01. For the same compound, the relative viability (NCI-H647; first compound 0.01 µM) was 1.71, the relative viability (NCI-H647; first compound 0.03162 µM) was 1.37 and the relative viability (NCI-H647; first compound 0.3162 µM) was 1.3. It also gave a relative viability (EKVX; first compound 0.01 µM) of 1.05, a relative viability (EKVX; first compound 0.03162 µM) of 1.03 and a relative viability (EKVX; first compound 0.3162 µM) of 1.03. The relative viability (NCI-H661; first compound 0.01 µM) was 1.1, the relative viability (NCI-H661; first compound 0.03162 µM) was 1.19 and the relative viability (NCI-H661; first compound 0.3162 µM) was 1.11. For the same compound, the relative viability (NCI-H596; first compound 0.01 µM) was 0.97, the relative viability (NCI-H596; first compound 0.03162 µM) was 1.05 and the relative viability (NCI-H596; first compound 0.3162 µM) was 0.896. For the same compound, the relative viability (NCI-H1734; first compound 0.01 µM) was 0.713, the relative viability (NCI-H1734; first compound 0.03162 µM) was 0.782 and the relative viability (NCI-H1734; first compound 0.3162 µM) was 0.76. For the same compound, the relative viability (NCI-H2405; first compound 0.01 µM) was 0.825, the relative viability (NCI-H2405; first compound 0.03162 µM) was 0.904 and the relative viability (NCI-H2405; first compound 0.3162 µM) was 0.854. It also gave a relative viability (NCI-H1437; first compound 0.01 µM) of 1.21, a relative viability (NCI-H1437; first compound 0.03162 µM) of 0.996 and a relative viability (NCI-H1437; first compound 0.3162 µM) of 1.03. It also gave a relative viability (HCC-366; first compound 0.01 µM) of 0.688, a relative viability (HCC-366; first compound 0.03162 µM) of 1.05 and a relative viability (HCC-366; first compound 0.3162 µM) of 0.587. It also gave a relative viability (HCC-44; first compound 0.01 µM) of 0.934, a relative viability (HCC-44; first compound 0.03162 µM) of 0.952 and a relative viability (HCC-44; first compound 0.3162 µM) of 0.826. The relative viability (NCI-H2170; first compound 0.01 µM) was 1.67, the relative viability (NCI-H2170; first compound 0.03162 µM) was 1.45 and the relative viability (NCI-H2170; first compound 0.3162 µM) was 1.42. For the same compound, the relative viability (HARA; first compound 0.01 µM) was 1.2, the relative viability (HARA; first compound 0.03162 µM) was 0.904 and the relative viability (HARA; first compound 0.3162 µM) was 0.983. It also gave a relative viability (NCI-H1355; first compound 0.01 µM) of 1.19, a relative viability (NCI-H1355; first compound 0.03162 µM) of 1.11 and a relative viability (NCI-H1355; first compound 0.3162 µM) of 1.09. It also gave a relative viability (LOU-NH91; first compound 0.01 µM) of 0.719, a relative viability (LOU-NH91; first compound 0.03162 µM) of 0.727 and a relative viability (LOU-NH91; first compound 0.3162 µM) of 0.771. The relative viability (SK-LU-1; first compound 0.01 µM) was 0.94, the relative viability (SK-LU-1; first compound 0.03162 µM) was 1.05 and the relative viability (SK-LU-1; first compound 0.3162 µM) was 0.978. For the same compound, the relative viability (LC-2-ad; first compound 0.01 µM) was 0.471, the relative viability (LC-2-ad; first compound 0.03162 µM) was 0.458 and the relative viability (LC-2-ad; first compound 0.3162 µM) was 0.436. It also gave a relative viability (HCC-827; first compound 0.01 µM) of 0.993, a relative viability (HCC-827; first compound 0.03162 µM) of 1.03 and a relative viability (HCC-827; first compound 0.3162 µM) of 0.881. The relative viability (NCI-H2009; first compound 0.01 µM) was 1.05, the relative viability (NCI-H2009; first compound 0.03162 µM) was 1.2 and the relative viability (NCI-H2009; first compound 0.3162 µM) was 1.06. It also gave a relative viability (NCI-H2228; first compound 0.01 µM) of 0.64, a relative viability (NCI-H2228; first compound 0.03162 µM) of 0.449 and a relative viability (NCI-H2228; first compound 0.3162 µM) of 0.33. For the same compound, the relative viability (NCI-H2087; first compound 0.01 µM) was 1.16, the relative viability (NCI-H2087; first compound 0.03162 µM) was 1.11 and the relative viability (NCI-H2087; first compound 0.3162 µM) was 1.04. The relative viability (SK-MES-1; first compound 0.01 µM) was 1.02, the relative viability (SK-MES-1; first compound 0.03162 µM) was 1.14 and the relative viability (SK-MES-1; first compound 0.3162 µM) was 0.938.
